Data reported in patent publication US12606795B2 (Thankcome Biological Science and Technology (SuZhou) Co., …, priority 2023, dated 2026).
Marks after values point to notes of the source that are not given here.

Legend:
[1] = tested on: DSS-induced ulcerative colitis mice; test: DSS-induced ulcerative colitis in mice; type: in vivo, C57BL/6J mice; conditions: 5.0% DSS mice, 1×10^10 CFU/mL intragastric daily 9 d
Protocol: Animals and their management: male C57BL/6J mice (6 to 10-week-old, weighing 18 to 24 g) purchased from the Beijing Huafukang Biotechnology Co., Ltd, where procedures involving mice were carried out in strict accordance with international animal care standards, and approved by the Animal Protection Institute and Management Committee of Jilin Agricultural University. Adaptive culture was performed for 1 week, and mice were cultured at room temperature (25° C.±1° C.) in a cycle of 12 h of light and 12 h of darkness.
Animal experimental design: 5.0% (wt/vol) DSS (molecular weight: 36,000 to 50,000) was added to drinking water of the mice for 3 consecutive days to induce colitis. Beginning on the first day of taking DSS, the A. muciniphila (viable or inactivated, with a concentration of 1×10^10 CFU/mL) was intragastrically administered per day for 9 consecutive days. C57BL/6J mice were randomly divided into four groups: a control group, a DSS model group (DSS), an AKK PRO group, and an inactivated AKK PRO group (mAKK PRO). Physiological indicators of the mice in each group were observed.
Physiological indicators: The physiological indicators are used for assessing health statuses of the mice. The individual scores of the mice were combined to generate disease activity indices (DAI), including changes of body weight, food intake, and fecal consistency. After the mice were euthanized, the colon length and the liver weight of each mouse in each group were measured, and an immune organ index was calculated according to the following formula: liver index=liver weight (mg)/body weight (g) [Wang, X., et al., Troxerutin Improves Dextran Sulfate Sodium-Induced Ulcerative Colitis in Mice. J Agric Food Chem, 2021. 69 (9): p. 2729-2744.].

[2] = tested on: APP/PS1 double transgenic mice; test: Alzheimer's disease in APP/PS1 double transgenic mice; type: in vivo
Excerpt: 20 12-month-old APP/PS1 double transgenic mice (Hangzhou Ziyuan Experimental Animal Technology Co., Ltd., batch MJ0324-058) were randomly divided into two groups: an APP group and an APP+AKK group, with 10 mice in each group. Another 10 littermate wild-type C57 BL/6J mice were taken as blank, which served as a WT group. All mice were given intragastric administration and injection for 30 d at 12-month age (see Table 7 for intragastric administration conditions). After all the experiments ended, blood was collected from the orbital veins of the mice. The mice were sacrificed by cervical dislocation. Part of brain tissue, liver tissue and colon tissue of the mice were taken and placed in 4% paraformaldehyde, and the remaining tissue was placed in an ultra-low temperature freezer at −80° C. for storage.
DDW: Double distilled water.
After administration, a Morris water maze experiment of a 4-day duration was conducted firstly. The water maze consists of a circular pool (with a diameter of 120 cm) and is evenly divided into four quadrants. During the experiment, the mice were moved into a laboratory two hours in advance to acquaint themselves with the environment. The water temperature was adjusted to around 21° C. to 22° C., and then milk was poured into the pool to make the water milky white. D1 to D3 were a training period, during which the mice were gently placed into the water from first, second, third, and fourth quadrants with their faces towards the direction of the pool wall reminders. Swimming trajectories at 1 min were recorded. […] Each mouse was trained once per day per quadrant for 3 consecutive days. D4 was an experimental period, during which a quadrant was randomly selected for each mouse and then the mice were placed in the pool. The time required to find the platform within 60 s, i.e., escape latency, was recorded, and the swimming trajectory of each mouse was recorded with a video acquisition system. If the mouse fail to find the platform within 60 s after entering the water, the escape latency is recorded as 60 s.
A hippocampus was homogenized in 1 mL RIPA (Thermofisher, Waltham, MA, USA) and 10 μL PMSF (Thermofisher), and the homogenized hippocampus was centrifuged at 4° C. at 12000×g for 5 min. Proteins were quantified using a BCA protein assay kit (Thermofisher). A protein sample was mixed with a sample buffer (Thermofisher) in a ratio of 4:1, and the mixture was heated at 95° C. for 5 min. Then the sample was dispensed into gel pores of SDS-PAGE gel and the gel was run at 100 V. Strips on SDS-PAGE gel were transferred onto a PVFD membrane. The PVDF membrane was sealed with 5% skim milk for 1 h, and then the stripes were incubated overnight with a primary antibody (Thermofisher) at 4° C. An antibody (Thermofisher) was added after the membrane was washed and the incubation was performed for 1 h. Images on iBright™ (Thermofisher) were obtained after chemiluminescence was performed using a western ECL substrate (Thermofisher), where the images were used for subsequent analysis.
The hippocampus was taken and homogenized with PBS, and then liquid supernatant was drawn for the experiment. The levels of IL-4 (interleukin-4, Nanjing Jiancheng Biological Engineering Research Institute, product number: H005-1-2), IL-10 (interleukin-10, Nanjing Jiancheng Biological Engineering Research Institute, product number: H009-1-2), CCL2 (chemokine ligand 2, Nanjing Jiancheng Biological Engineering Research Institute, product number: H318-1) and CXCL1 (CXC chemokine ligand 1, Nanjing Jiancheng Biological Engineering Research Institute, product number: H306-1) in the hippocampus were tested by the instruction of the ELISA kit.

[3] = 1*10^9 CFU/mouse/d intragastric 30 d, vs APP group
[4] = APP+AKK group compared with APP group

Substance: Akkermansia muciniphila [AKK PROBIO]
- immune organ index (liver index) ([1]; vs DSS group): significantly decreased
- colon length ([1]; vs DSS group, P<0.05): significantly increased
- DAI score ([1]; vs model group): lower
- body weight reduced ([1]; vs model group): less
- food intake reduced ([1]; vs model group): less
- escape latency (Morris water maze) [2, 3]: shortened
- path to finding the platform (Morris water maze) [2, 3]: significantly shortened
- levels of CXCL1 and CCL2 [2, 4]: declining trend
- levels of IL-4 and IL-10 [2, 4]: rising trend
- Hippocampus IL-4 ([2]; APP/PS1 mice, 1*10^9 CFU/mouse/d 30 d, APP group 54.73, WT 410.91): 210.90 ± 19.77^c
- Hippocampus CCL2 ([2]; APP/PS1 mice, 1*10^9 CFU/mouse/d 30 d, APP group 159.11, WT 103.32): 123.20 ± 0.50^b
- Hippocampus Aβ ([2]; APP/PS1 mice, 1*10^9 CFU/mouse/d 30 d, APP group 348.45, WT 59.23): 185.15 ± 9.07^b
- Hippocampus IL-10 ([2]; APP/PS1 mice, 1*10^9 CFU/mouse/d 30 d, APP group 1035.86, WT 3373.80): 2516.88 ± 91.80^c
- Hippocampus CXCL1 ([2]; APP/PS1 mice, 1*10^9 CFU/mouse/d 30 d, APP group 1217.20, WT 355.37): 653.77 ± 15.44^b
